{"source": "patent US9370526B2", "about": "“Combination hormone replacement therapy (HRT) and melatonin to prevent and treat mammary cancer” (Duquesne University of the Holy Spirit, priority 2009, dated 2016)", "key": {"[1]": {"tested_on": "MMTV-neu mice (neu oncogene, mimics HER2+ breast cancer)", "assay": "Mammary tumor onset (latency) and incidence in MMTV-neu mice given oral HRT diet and/or nocturnal melatonin in drinking water", "type": "in vivo", "description": "(§1) We studied the effects of the present combination therapy as follows. We chose a mouse model, MMTV-neu mice, which express the neu oncogene that mimics HER2+ breast cancer. In a population of mice, both melatonin and HRT were given orally to correlate with the dosage method in women, basing the dosing on diet based on the calories an average woman consumes daily, namely, 1800 kcal, but adjusting for the small size and metabolism of the mice. Estrogen+progestin HRT contained the bioidentical hormones 17β-estradiol (E2) at the currently recommended dosage for women (0.5 mg/1800 kcal) and progesterone (P4) at half of the recommended dose (50 mg/1800 kcal). For example, the daily mouse dose would be less than 500 mcg progesterone (P4). Melatonin was provided in the drinking water at a concentration of 15 mg/L (dose equivalent to a 5 mg tablet for women) only during the night to supplement the normal nocturnal surge in endogenous melatonin. Using drinking water rather than food to administer melatonin allowed the mice continual access to the control and HRT diets, instead of just during the night (dark cycle).\nReferring now to FIG. 1, survival curves are shown which represent the age of primary mammary tumor onset in weeks, on the x axis, and percent mammary tumor incidence on the y axis. FIG. 1a represents age of primary mammary tumor onset and incidence between control (C/V) vs. melatonin (C/M) groups, with C signifying no hormone administration, V signifying no melatonin administration, and M signifying melatonin administration. FIG. 1b represents control vs. HRT (HRT/V) groups, with C signifying no hormone administration, V signifying no melatonin administration, and with HRT signifying Hormone Replacement Therapy (in FIG. 1b, without melatonin, or “V”). FIG. 1c represents the results of HRT/V versus HRT/M administration (M=melatonin) and FIG. 1d represents the results of CN versus HRT/M administration. […] No change in body weight occurred as a result of the treatments. […] FIG. 1c represents HRT vs. HRT plus melatonin; FIG. 1d represents control versus HRT plus melatonin."}, "[2]": {"tested_on": "mammary tumors in MMTV-neu mice", "assay": "Mammary tumor growth and progression (tumor weight, volume, metastatic incidence), same study", "type": "in vivo", "settings": "compared to control animals (FIG. 2)", "description": "as §1"}, "[3]": {"tested_on": "RNA expression in the lower mammary gland", "assay": "RNA expression in the lower mammary gland by microarray analysis", "type": "in vivo, mice", "protocol": "FIG. 3 reports aggregated data regarding thousands of RNA fragments tested for over- or under-expression of more than one and one-half times more or less expression than in control, for mice treated with C/C (no hormone, no melatonin control), C/M (no hormone/melatonin), EMP/C (estrogen/mid progesterone (that is, half the recommended dose of progesterone, or 50 mg (P4)) but no melatonin) and EMP/M (estrogen/mid progesterone (that is, half the recommended dose of progesterone, or 50 mg (P4)) and melatonin)."}}, "data": [{"smiles": "COc1ccc2[nH]cc(CCNC(C)=O)c2c1", "note": "[melatonin]", "values": [{"measurement": "incidence of mammary cancer, in words", "setting": "[1]; compared to control animals", "result": "did not modify"}, {"measurement": "latency of mammary cancer (age of primary tumor onset), in words", "setting": "[1]; compared to control animals", "result": "did not modify"}, {"measurement": "incidence of mammary cancer (animals with tumor/animals in group)", "setting": "[1]; control 44/57", "result": "42/57"}, {"measurement": "incidence of mammary cancer", "setting": "[1]; control 77%", "result": 74, "unit": "%"}, {"measurement": "tumor volume", "setting": "[2]", "result": "significant decrease"}, {"measurement": "tumor weight", "setting": "[2]", "result": "significant decrease"}, {"measurement": "RNA expression changes (upregulation and downregulation), in words", "setting": "[3]", "result": "limited number of RNA expression changes"}]}]}
